Test [1] concerns EB virus infected human peripheral lymphocyte cells JVM-2. In words: Cancer cell growth, Cell Titer-Glo. The class given is cell-based. The settings on record: JVM-2, 72 hrs, read-out: Half inhibitory concentration IC50. The source says:
(§1) We further assessed the selectivity of Compound 1 to inhibit the proliferation of cancer cells, by testing the effect of Btk inhibitor on the growth of cancer cells. In the example, we used B-lymphoma cell Ramos, cervical cancer cells HeLa, prostate cancer cells DU145, RV-1 and C4-2, colon cancer cells HCT116, blood cancer cells K562, B-cell lymphoma cells U2932, diffuse large B-cell lymphoma cells OCI-LY10, diffuse histiocytic lymphoma cells SU-DHL-2, diffuse large B-cell lymphoma cells TMD8, human non-small cell lung cancer cells H1975 (expressing EGFR L858R/T790M double mutant gene), human lung adenocarcinoma cells A549 (expressing wild-type EGFR gene), human non-small cell lung cancer cells H460 (expressing wild-type EGFR gene), mantel cell lymphoma (MCL) cells Z-138, EB virus infected human peripheral lymphocyte cells JVM-2, MCL cells REC-1, leukemia cells AML-3, acute promyelocytic leukemia cell line NB-4(Lu+), MDS-RAEB (myelodysplastic syndrome-excessive blasts) cell line SKM-1 human leukemia cell Nomo-1, human B-cell leukemia cell line NALM6, human leukocyte leukemia cells HEL, human T-cell lymphoma cells PF-382, acute myelocytic leukemia (AML) cell line MOLM14, AML cell line MOLM13, human Burkitt's lymphoma cells Namalwa, mouse pro-B cells BaF3, all of where were purchased from ATCC. Also used were mouse TEL-EGFR-BaF3 (stably expressing TEL-EGFR activated kinase), mouse TEL-EGFR/T790-BaF3 cells (stably expressing TEL-EGFR-T790M activated mutant kinase), mouse TEL-EGFR/L858R-BaF3 cells (stably expressing TEL-EGFR-L858R activated mutant kinase), mouse TEL-EGFR/T790/L858R-BaF3 (stably expressing TEL-EGFR-T790M/L858R activated mutant kinase), mouse TEL-BMX-BaF3 cells (stably expressing TEL-BMX activated kinase), mouse TEL-JAK1-BaF3 cells (stably expressing TEL-JAK1 activated kinase), mouse TEL-JAK2-BaF3 cells (stably expressing TEL-JAK2 activated kinase), mouse TEL-JAK3-BaF3 cells (stably expressing TEL-JAK3 activated kinase), where were all established by our laboratory via the following method: the kinase domain sequences of human EGFR, BMX, JAK1, JAK2, JAK3 were amplified respectively by PCR, and these kinase were inserted into the MSCV-Puro vectors with N-terminal TEL segment (Clontech); if there was a mutation, the mutation of the corresponding site was conducted by Site-Directed Mutagenesis kit (Stratagene); the resultants were stably transfected into mouse BaF3 cells by the means of retrovirus, and the IL-3 growth factors were removed, and eventually the EGFR, BMX, JAK1, JAK2, JAK3-transferred protein dependent cell lines were obtained.
(§2) In the example, different concentrations (0.000508 μM, 0.00152 μM, 0.00457 μM, 0.0137 μM, 0.0411 μM, 0.123 μM, 0.370 μM, 1.11 μM, 3.33 μM, 10 μM) of Compound 1 and Compound 19 were added into above cells, and were incubated for 72 hrs. The number of viable cells was determined by quantitating ATP in viable cells using Cell Titer-Glo® (Promega, U.S.) chemiluminescence cell viability assay kit.
In general terms: In ATP-based viability assays light output follows the ATP content of the culture.

Test [2] has as its system SD rat adjuvant arthritis (AA) model. In words: SD rat adjuvant arthritis (AA) model, arthritis index. The format is in vivo. As to the method:
In this example, SD rat adjuvant arthritis (AA) model (purchased from the Experimental Animal Center of Anhui Province) was used. PCI-32765 and methotrexate (MTX) were used as positive control (both purchased from Shanghai Chemexpress). The therapeutic effect of Compound 1 on AA rats was studied via the combination of in vivo and in vitro administration. 10 mg/nal of complete Freund's adjuvant (CFA, purchased from Shanghai Chemexpress) was mixed well, and 0.1 ml of CFA was intracutaneously injected into each rat at right posterior plantar to induce inflammation. The normal group was injected with saline via the same method. On the 17th day, the successful modeling male SD rats were randomly divided into 7 groups with 10 rats in each group, namely the model group, the small/medium/large dose of Compound 1 group (12.5, 25, 50 mg/kg/per administration, intraperitoneal injection, one administration per day for 16 days), the Compound 19 group (25 mg/kg/per administration, intraperitoneal injection, one administration per day for 16 days), the positive control PCI-32765 group (25 mg/kg/per administration, intraperitoneal injection, one administration per day for 16 days), the MTX group (0.5 mg/kg, intragastrical, one administration every 3 days, totally 6 times). The rats in the model group were intraperitoneally injected with the same amount of DMSO solution.

For test [3], the system named is mouse TEL-JAK2-BaF3 cells (stably expressing TEL-JAK2 activated kinase). In words: Cell growth, Cell Titer-Glo. The format is cell-based. The settings on record: TEL-JAK2-BaF3, 72 hrs, read-out: Half inhibitory concentration IC50.
Excerpt: as §1, §2

Test [4] concerns mouse TEL-JAK1-BaF3 cells (stably expressing TEL-JAK1 activated kinase). As to the kind of experiment: Cell growth, Cell Titer-Glo. The class given is cell-based. Particulars: TEL-JAK1-BaF3, 72 hrs, read-out: Half inhibitory concentration IC50.
Excerpt: as §1, §2

Test [5] has as its system mouse TEL-EGFR/T790-BaF3 cells (stably expressing TEL-EGFR-T790M activated mutant kinase). In words: Cell growth, Cell Titer-Glo. Particulars: TEL-EGFR/T790-BaF3, 72 hrs, read-out: Half inhibitory concentration IC50. The class given is cell-based.
Excerpt: as §1, §2

Test [6] concerns mouse TEL-BMX-BaF3 cells (stably expressing TEL-BMX activated kinase). In words: Cell growth, Cell Titer-Glo. The format is cell-based. The settings on record: TEL-BMX-BaF3, 72 hrs, read-out: Half inhibitory concentration IC50.
Excerpt: as §1, §2

Test [7] has as its system mouse TEL-EGFR/L858R-BaF3 cells (stably expressing TEL-EGFR-L858R activated mutant kinase). As to the kind of experiment: Cell growth, Cell Titer-Glo. Particulars: TEL-EGFR/L858R-BaF3, 72 hrs, read-out: Half inhibitory concentration IC50. The format is cell-based.
Excerpt: as §1, §2

The test system of test [8] is mouse TEL-EGFR/T790/L858R-BaF3 (stably expressing TEL-EGFR-T790M/L858R activated mutant kinase). As to the kind of experiment: Cell growth, Cell Titer-Glo. The class given is cell-based. Particulars: TEL-EGFR/T790/L858R-BaF3, 72 hrs, read-out: Half inhibitory concentration IC50.
Excerpt: as §1, §2

Test [9] deals with mouse TEL-EGFR-BaF3 (stably expressing TEL-EGFR activated kinase). As to the kind of experiment: Cell growth, Cell Titer-Glo. The class given is cell-based. The settings on record: TEL-EGFR-BaF3, 72 hrs, read-out: Half inhibitory concentration IC50.
Excerpt: as §1, §2

Test [10] concerns mouse pro-B cells BaF3. As to the kind of experiment: Cell growth, Cell Titer-Glo. The settings on record: BaF3, 72 hrs (listed twice in Table 3), read-out: Half inhibitory concentration IC50. The format is cell-based.
Excerpt: as §1, §2

Test [11] deals with mouse TEL-JAK3-BaF3 cells (stably expressing TEL-JAK3 activated kinase). As to the kind of experiment: Cell growth, Cell Titer-Glo. The class given is cell-based. Particulars: TEL-JAK3-BaF3, 72 hrs, read-out: Half inhibitory concentration IC50.
Excerpt: as §1, §2

This is an account of results in US9814709B2, “Bruton's tyrosine kinase inhibitor” (HEFEI INSTITUTES OF PHYSICAL SCIENCE, CHINESE ACADEMY OF …, priority 2014, dated 2017).

The structures appear in SMILES notation. Where two headings read alike, the source gives them in different places.

On to `C=CC(=O)Nc1cc(-n2c(=O)ccc3cnc4ccc(-n5cccn5)cc4c32)ccc1C` [Compound 1, N-(2-methyl-5-(2-oxo-9-(1H-pyrazol-1-yl)benzo[H][1,6]naphthyridin-1(2H)-yl)phenyl)acrylamide], for which the IC50 in test [1] is 3.4 µM; in test [3], 2.1 µM; in test [4], 1.6 µM; in test [5], 0.918 µM; in test [6], 0.018 µM; in [7], 0.292 µM. Further, the IC50 in test [8] was determined as 1.59 µM; in test [9], 2.66 µM; in test [10] it was 4.28 µM; in test [10] (Mus musculus, BaF3, 72 h) it was 4.2 µM; in test [11], 2.3 µM. Moreover, in [2] (12.5 mg/kg intraperitoneal once per day, starting from day 21), the “effect on arthritis index of rats compared with the model group” value is given as “significantly reduced”. Also, the “effect on arthritis index of rats” value in [2] (12.5 mg/kg intraperitoneal once per day, starting from day 24) was “significantly reduce”.

Regarding `CCC(=O)Nc1cc(-n2c(=O)ccc3cnc4ccc(-n5cccn5)cc4c32)ccc1C` [Compound 19, N-(2-methyl-5-(2-oxo-9-(1H-pyrazol-1-yl)benzo[H][1,6]naphthyridin-1(2H)-yl)phenyl) propionamide], the IC50 in test [1], in test [3], in test [4], in test [5], in test [6] and in test [7] was greater than 10 µM throughout. The IC50 in test [8] is greater than 10 µM; in [9], greater than 10 µM; in test [10] (Mus musculus, BaF3, 72 h) it was greater than 10 µM; in test [11] it was greater than 10 µM. In test [2] (25 mg/kg intraperitoneal once per day for 16 days), the “effect on the rat arthritis index” value is recorded as “little effect”.
